Experiments:
[1] = rat; cited from earlier work
[2] = Sample stability of bile acid B in dried blood spots, whole blood, processed samples, stock and working solutions; format: physicochemical
Description: Sample stability. The storage stability of dried blood spots and processed sample stabilities in the autosampler were determined at the LQC and HQC concentration levels (n=3). Storage stability of bile acid B in dried blood spots was tested at −20° C. and room temperature for 66 days, and at 37° C. for 90 hours. In the autosampler, stability was tested over seven days by injecting the first batch of the validation samples. The LQC and HQC in whole blood were placed on benchtop at room temperature for 27 hours and then spotted onto newborn screening cards to examine stability of bile acid B in whole blood. Stock solution stability was established by quantification of samples from dilution of two stock solutions that have been stored at −20° C. for 91 days and at room temperature on the bench for 22 hours, respectively, to the final solution (500 ng/mL in water). The storage stability of internal standard working solution was tested at room temperature for 12 days. A fresh standard curve was established each time. Bile acid B was stable in dried blood spots in newborn screening cards for up to 66 days at room temperature storage.
Stability in whole blood, dried blood spots, processed samples, stock and working solutions. The allowable time bile acid B spiked whole blood sample can remain at room temperature prior to spoiling on a newborn screening card was determined with LQC and HQC blood samples, which were remained at room temperature for 27 hours prior to spotting. Three replicates were assessed and the accuracy (within ±4.5% RE) and precision (<7.5% CV) were within the quality control acceptance criteria stated above. Bile acid B is therefore considered stable in whole blood for 27 hours prior to spotting.
The stability of bile acid B in dried blood spots on the newborn screening cards stored at room temperature and −20° C. for 66 days and at 37° C. for 90 hours was assessed by comparisons of three replicates of stored LQC and HQC against freshly prepared calibration standards and QC samples. […] Processed sample stability was assessed by re-injection of LQC and HQC together with calibration curve from one accuracy/precision run after storage in the autosampler at 4° C. for 7 days.
Stock solution stability of bile acid B and internal standard in acetonitrile-water (1:1) was established for 22 hours at room temperature. The internal standard in aqueous working solution (1% sodium dodecyl sulfate (SDS) and 50 mM trisodium citrate at pH 12) was stable for 12 days at room temperature.

Hep G2 cells = assay: Biosynthesis of bile acids from cholestane-3β,5α,6β-triol in Hep G2 cells; format: in vitro ADME, human; settings: 2.5 ng/mL, 24 h, conditioned medium
Description: To explore the biosynthetic route of the bile acids, the human hepatoblastoma-derived cell line Hep G2 was incubated with cholestane-3β,5α,6β-triol and 7,7,22,22,22-d4-cholestane-3β,5α,6β-triol. Hep G2 cells (1×10^6 cells/well) were seeded in a 6-well plate in triplicate and maintained in Dulbecco's modified Eagle's medium supplemented with 15% fetal calf serum and 100 U of penicillin G/mL and […] streptomycin sulfate at 37° C. in a humidified atmosphere with 5% CO2. Hep G2 cells were treated when they were 80% confluent. For the treatment, 100× stock solutions were made in DMSO for triol and d4-triol. DMSO concentration never exceeded 1% in the culture medium. […] The supernatant was transferred to a glass HPLC insert and analyzed immediately after preparation by the LC-MS/MS.
LC-MS/MS analysis was conducted on a Shimadzu (Columbia, Md.) Prominence UFLC system coupled with an Applied Biosystems/MDS Sciex (Ontario, Canada) 4000QTRAP mass spectrometer using multiple reaction monitoring (MRM). […] Data were acquired and analyzed by Analyst software (version 1.5.2). […] FIG. 40 depicts synthetic bile acid A detected by MRM transition m/z 407→407. FIG. 41 depicts bile acid A generated from cholestane-3β,5α,6β-triol in HepG2 cells and detected by MRM transition m/z 407→407. […]

| Structure (SMILES) | metabolite of cholestane-3β,5α,6β-triol [1] | stock solution stability ([2]; acetonitrile-water (1:1), room temperature) [h] | processed sample stability ([2]; autosampler at 4° C. for 7 days) | stability in dried blood spots on newborn screening cards ([2]; room temperature) | stability in whole blood prior to spotting ([2]; room temperature, LQC and HQC) [h] | stability in dried blood spots on newborn screening cards ([2]; room temperature, listed as bile acid B) | stability in dried blood spots on newborn screening cards ([2]; shipping conditions (37° C.)) [h] | stability in dried blood spots on newborn screening cards ([2]; −20° C.) | formation from cholestane-3β,5α,6β-triol or d4-triol (Hep G2 cells) |
| --- | --- | --- | --- | --- | --- | --- | --- | --- | --- |
| C[C@H](CCC(=O)O)[C@H]1CCC2C3C[C@@H](O)[C@@]4(O)C[C@@H](O)CC[C@]4(C)C3CC[C@@]21C (stereo partly drawn) [Bile acid A, 3β,5α,6β-trihydroxycholanic acid] | major metabolite |  |  |  |  |  |  |  |  |
| C[C@H](CCC(=O)NCC(=O)O)[C@H]1CC[C@H]2[C@@H]3C[C@@H](O)[C@@]4(O)C[C@@H](O)CC[C@]4(C)[C@H]3CC[C@]12C [Bile acid B, N-(3β,5α,6β-trihydroxy-cholan-24-oyl)glycine] |  | 22 | Stability was demonstrated | up to 66 days | 27 | at least 66 days | 90 | at least 66 days | No bile acid B was found |

Reference: US10983112B2, “Bile acid biomarkers for Niemann-Pick diseases, methods and uses therefor” (Washington University, priority 2014, dated 2021)
